Assay results as given in US9440910B2, “Reference markers for fesoterodine fumarate” (ALEMBIC PHARMACEUTICALS LIMITED, priority 2012, dated 2016).
Where a name gives a salt, the structure may show the parent alone.

Tests used:
Format in all cases: physicochemical
[1] = Stability Study of Fesoterodine Fumarate at 40° C.+/−2° C. 75%+/−5% RH
Protocol: (§1) Present inventors carried out the stability study of Fesoterodine Fumarate at different conditions and summarized the table shown below which easily indicate how the impurity at 1.82 RRT is increasingly generated.
Stability Study of Fesoterodine Fumarate at 40° C.+/−2° C. 75%+/−5% RH
(§2) The LC system, used for method development and forced degradation studies and method validation was Waters-Alliance (manufactured by Waters India Ltd) LC system with a photo diode detector. The out put signal was monitored and processed using Empower software system (designed by Waters India) on IBM computer (Digital Equipment Co). • The chromatographic column used was a Waters Aquity BEH C18 100 mm×2.1 mm column with 1.7 μm particles. The mobile phase consists buffer (1.4 g of Disodium hydrogen phosphate in 1000 mL of water pH-8.0 with ortho phosphoric acid), and solvent is acetonitrile. The flow rate of the mobile phase was kept at 0.3 ml/min. beginning with the gradient ratio of mobile phase buffer and solvent 50:50 (v/v), system was continued at the same ratio for 2 minutes. The ratio was changed linearly 30:70(v/v) within 7 minutes and again system was continued at the same ratio for 9 minutes. After 1.5 minutes the initial gradient of 50:50 is for 2.5 minutes to be conditioned far every analysis. The column temperature was maintained at 45° C. and the wavelength was monitored at a wavelength of 220 nm. The injection volume was 3 μL for related substances determination. Acetonitrile was used as diluent during the standard, and test samples preparation.

[2] = Stability Study of Fesoterodine Fumarate at 30° C.+/−2° C. 65%+/−5% RH
Protocol: as §1
Stability Study of Fesoterodine Fumarate at 30° C.+/−2° C. 65%+/−5% RH
as §2

[3] = Stability Study of Fesoterodine Fumarate at 2-8° C.
Protocol: as §1
Stability Study of Fesoterodine Fumarate at 2-8° C.
as §2

[4] = Stability Study of Fesoterodine Fumarate at 25° C.+/−2° C. 60%+/−5% RH
Protocol: as §1
Stability Study of Fesoterodine Fumarate at 25° C.+/−2° C. 60%+/−5% RH
as §2

[5] = Analysis of the stability samples of fesoterodine fumarate; conditions: after 2-6 months stability at 25° C. and above temperature; not observed during initial analysis
Protocol: During analysis of the stability samples of fesoterodine fumarate, after 2-6 months stability at 25° C. and above temperature, the unknown impurity (1.82 RRT) detected which was not observed during initial analysis.
as §2, with “The injection volume was 3 μL for related substances determination. Acetonitrile was used as diluent during the standard, and test samples preparation.” left out

Compound: CC(C)C(=O)Oc1ccc(CO)cc1[C@H](CCN(C(C)C)C(C)C)c1ccccc1 [Fesoterodine Fumarate, [2-[(1R)-3-(Di(propan-2-yl)amino)-1-phenylpropyl]-4-(hydroxymethyl)phenyl]2-methylpropanoate]
- 0.29 RRT 0.29 RRT (Fumaric acid ester) ([1]; 1 month): 0.10%
- 1.82 RRT ([1]; 1 month): 0.06%
- Dihydroxy impurity (active metabolite) ([1]; 1 month): 0.64%
- Purity of Fesoterodine fumarate ([1]; 1 month): 98.92%
- 0.29 RRT 0.29 RRT (Fumaric acid ester) ([1]; Initial): 0.03%
- Dihydroxy impurity (active metabolite) ([1]; Initial): 0.07%
- Purity of Fesoterodine fumarate ([1]; Initial): 99.69%
- 0.29 RRT (Fumaric acid ester) ([2]; 1 month): 0.06%
- Dihydroxy impurity (active metabolite) ([2]; 1 month): 0.23%
- Purity of Fesoterodine fumarate ([2]; 1 month): 99.43%
- 0.29 RRT (Fumaric acid ester) ([2]; 2 month): 0.09%
- 1.82 RRT ([2]; 2 month): 0.02%
- Dihydroxy impurity (active metabolite) ([2]; 2 month): 0.45%
- Purity of Fesoterodine fumarate ([2]; 2 month): 99.15%
- 0.29 RRT (Fumaric acid ester) ([2]; 3 month): 0.10%
- 1.82 RRT ([2]; 3 month): 0.07%
- Dihydroxy impurity (active metabolite) ([2]; 3 month): 0.71%
- Purity of Fesoterodine fumarate ([2]; 3 month): 98.84%
- 0.29 RRT (Fumaric acid ester) ([2]; 4 month): 0.09%
- 1.82 RRT ([2]; 4 month): 0.11%
- Dihydroxy impurity (active metabolite) ([2]; 4 month): 0.76%
- Purity of Fesoterodine fumarate ([2]; 4 month): 98.74%
- 0.29 RRT (Fumaric acid ester) ([2]; Initial): 0.03%
- Dihydroxy impurity (active metabolite) ([2]; Initial): 0.07%
- Purity of Fesoterodine fumarate ([2]; Initial): 99.69%
- 0.29 RRT (Fumaric acid ester) ([3]; 3 month): 0.04%
- Dihydroxy impurity (active metabolite) ([3]; 3 month): 0.11%
- Purity of Fesoterodine fumarate ([3]; 3 month): 99.61%
- 0.29 RRT (Fumaric acid ester) ([3]; 6 month): 0.05%
- Dihydroxy impurity (active metabolite) ([3]; 6 month): 0.15%
- Purity of Fesoterodine fumarate ([3]; 6 month): 99.52%
- 0.29 RRT (Fumaric acid ester) ([3]; Initial): 0.03%
- Dihydroxy impurity (active metabolite) ([3]; Initial): 0.07%
- Purity of Fesoterodine fumarate ([3]; Initial): 99.69%
- 0.29 RRT (Fumaric acid ester) ([4]; 1 month): 0.05%
- Dihydroxy impurity (active metabolite) ([4]; 1 month): 0.15%
- Purity of Fesoterodine fumarate ([4]; 1 month): 99.52%
- 0.29 RRT (Fumaric acid ester) ([4]; 2 month): 0.07%
- Dihydroxy impurity (active metabolite) ([4]; 2 month): 0.27%
- Purity of Fesoterodine fumarate ([4]; 2 month): 99.38%
- 0.29 RRT (Fumaric acid ester) ([4]; 3 month): 0.08%
- 1.82 RRT ([4]; 3 month): 0.01%
- Dihydroxy impurity (active metabolite) ([4]; 3 month): 0.40%
- Purity of Fesoterodine fumarate ([4]; 3 month): 99.25%
- 0.29 RRT (Fumaric acid ester) ([4]; 4 month): 0.07%
- 1.82 RRT ([4]; 4 month): 0.02%
- Dihydroxy impurity (active metabolite) ([4]; 4 month): 0.53%
- Purity of Fesoterodine fumarate ([4]; 4 month): 99.11%
- 0.29 RRT (Fumaric acid ester) ([4]; 6 month): 0.12%
- 1.82 RRT ([4]; 6 month): 0.11%
- Dihydroxy impurity (active metabolite) ([4]; 6 month): 1.02
- Purity of Fesoterodine fumarate ([4]; 6 month): 98.42%
- 0.29 RRT (Fumaric acid ester) ([4]; Initial): 0.03%
- Dihydroxy impurity (active metabolite) ([4]; Initial): 0.07%
- Purity of Fesoterodine fumarate ([4]; Initial): 99.69%
- unknown impurity (1.82 RRT) [5]: detected
